Data taken from patent US8865762B2, “Method for the treatment of bone diseases comprising colforsin daropate” (Korea Research Institute of Bioscience and Biotechnology, priority 2009, dated 2014).
“Also recorded” adds a separate entry of the source.

Legend:
[1] = system: murine monocytic cell line, RAW264.7; experiment: Cytotoxicity test of monocytes (CCK-8 kit); format: cell-based; conditions: RAW264.7, 0, 10, 20 and 30 μM, after 1, 2 and 4 days, FIG. 1, monohydrochloride
Procedure: The murine monocytic cell line, RAW264.7 (ATTC TIB-71) was cultured in a DMEM medium supplemented with 10% FBS, and the medium was replaced every other day. The cell culture reagents were purchased from Hyclone. When RAW264.7 cells reached 70% confluence, the collected cells were aliquotted into a 96-well plate at a density of 1×10^3/well, and cultured for 24 hours. Subsequently, the cells were treated with colforsin daropate at various concentrations (0, 10, 20 and 30 μM), and cultured for 96 hours. After 1, 2, and 4 days in culture, a cytotoxicity test was performed using the cells in each well and a CCK-8 kit (Dojindo, Japan).

[2] = system: TRAP activity induced by RANKL in the monocytic cell line RAW264.7; experiment: Osteoclast differentiation, TRAP staining and activity assay; format: cell-based, murine
Procedure: At this time, α-MEM containing 100 ng/ml RANKL (R&D systems) and 10% FBS was used as a cell suspension medium. After 24 hours, the cells were treated with colforsin daropate at various concentrations (0, 0.2, 1, 2, 10, and 20 μM). After 3 days, TRAP staining was performed using a leukocyte acid phosphatase kit (Sigma). The stained cells were first fixed in 10% formalin for 10 minutes, and then dehydrated in 95% ethanol, and dried well at room temperature. Subsequently, 100 μl of citrate buffer (50 mM, pH 4.6) containing 10 mM sodium tartrate and 5 mM p-nitrophenylphosphate was added to each well, and reacted for 20 to 30 minutes. Thereafter, the enzyme reaction mixtures were transferred into new 96-well plates, and the reaction was terminated using 100 μl of 0.1 N NaOH. Absorbance was measured at 405 nm. TRAP activity was presented as a % of control, and a significance test was performed by t-test at the same time (purmorphamine treatment p<0.01; colforsin daropate treatment p<0.001). Purmorphamine was used as a control compound.

[3] = system: ALP activity in multipotent C3H10T1/2 cells; experiment: Alkaline phosphatase (ALP) activity, C3H10T1/2; format: cell-based; conditions: FIG. 3B
Procedure: (§1) A murine osteoblastic cell, MC3T3-E1 subclone 4 (ATCC CRL-2593) was treated with colforsin daropate. After 8 days, cells were lysed using a lysis buffer (10 mM Tris-HCl, pH 7.5, 0.5 mM MgCl2, 0.1% Triton X-100) at room temperature for 30 minutes, and centrifuged at 12,000 rpm and 4° C. for 20 minutes. Next, […] in the obtained supernatant using a BCA kit (Bio-Rad), and its activity was measured using a LabAssay ALP kit (Wako, Japan). In this regard, the measured activity was presented as a % of the control, and a significance test was performed by t-test (colforsin daropate treatment, p<0.05; purmorphamine treatment as control, p<0.05). The same experiment was performed using multipotent C3H10T1/2 cells (cells can differentiate toward various lineages, including osteocytes).

[4] = system: ovariectomy-induced bone loss; experiment: Bone density-improving effect in ovariectomy-induced osteoporosis model (micro-CT); format: in vivo, DDY female mice; conditions: ovariectomized mice, p.o. 5 mg/kg or 10 mg/kg once a day for 4 weeks, FIG. 4, monohydrochloride
Procedure: Thus, most studies are performed in animals. Ovariectomized mice are frequently used as a model for postmenopausal osteoporosis. Ovariectomized mice and early postmenopausal women share many similar characteristics, and thus ovariectomized mice have been commonly used in the studies of osteoporosis therapeutic agents. The present inventors performed ovariectomies on 5-week-old DDY female mice. The mice were anesthetized by intraperitoneal injection of 25 mg/kg of pentobarbital sodium (JW Pharmaceutical Corp). The abdomen of each mouse was shaved, and the surgical site was cleansed with antiseptics to perform ovariectomy. A 1.5 cm abdominal incision was made through the skin, muscle, and peritoneum to expose the ovary. The ovary was dissected out, and the peritoneum, muscle, and skin were sutured. As a control group, a sham ovariectomy was performed to the peritoneum identically, but the ovaries remained intact. The mouse models having ovariectomy-induced bone loss were orally administered (p.o.) with the colforsin compound at the concentrations of 5 mg/kg or 10 mg/kg once a day for 4 weeks. The effects were examined using a high resolution in-vivo micro-CT system (explore Locus scanner, GE Health Care, USA) to analyze the bone density.

[5] = system: murine osteoblastic cell, MC3T3-E1 subclone 4; experiment: Cell proliferation of osteoblastic cells; format: cell-based
[6] = system: ALP activity in murine osteoblastic cell, MC3T3-E1 subclone 4; experiment: Alkaline phosphatase (ALP) activity of osteoblast, MC3T3-E1; format: cell-based; parameters: osteoblast differentiation-related ALP activity compared with the control compound purmorphamine: dose or concentration left out as unconfirmed
Procedure: as §1, with “In order to examine the effect of colforsin daropate on the activity of ALP, of which activity and expression are known to be increased at an early stage of osteoblast differentiation, the following experiment was performed. A murine” for “A murine”

Which results are given for `C=C[C@@]1(C)CC(=O)[C@]2(O)[C@@]3(C)[C@@H](O)CCC(C)(C)[C@@H]3[C@H](OC(=O)CCN(C)C)[C@H](OC(C)=O)[C@@]2(C)O1.Cl` [colforsin daropate]?
cytotoxicity [1]: no cytotoxicity; also recorded: without cytotoxicity; TRAP activity induced by RANKL ([2]; RAW264.7, 100 ng/ml RANKL, 0.2-20 μM, 3 days, % of control, FIG. 2): inhibited TRAP activity induced by RANKL in the monocytic cell line RAW264.7 in a concentration-dependent manner; osteoclast differentiation ([2]; RAW264.7 with RANKL, FIGS. 1 and 2): efficacy of inhibiting osteoclast differentiation; ALP activity [3]: also remarkably increased; bone density / ovariectomy-induced bone loss [4]: remarkably increased; also recorded: remarkably improved; cell proliferation [5]: did not affect cell proliferation; ALP activity ([6]; MC3T3-E1 subclone 4, after 8 days, % of control, FIG. 3A): remarkably increased; osteoblast differentiation-related ALP activity compared with the control compound purmorphamine ([6]; versus purmorphamine): more increased
